Source: US10478425B2, “5-phenylazaindole derivative having AMPK-activating activity” (Shionogi & Co., Ltd., priority 2016, dated 2019)

Target: T1, Human AMPK α2β2γ1 (Homo sapiens, UniProt O43741+P54646)
T1 construct: The full length cDNAs of human AMPK β2 (NM_005399.3) and human AMPK α2 (NM_006252.3); The full length cDNAs of human AMPK β2 (NM_005399.3); the full length cDNA of human AMPK γ1 (NM_002733.3) had been inserted into pET28b(+); 6×His (N); made in house; host or cells: Escherichia coli BL21 CodonPlus (DE3)-RIL
Experiment: Test Example 2: activation of phosphorylated human AMPK α2β2γ1 (mobility-shift kinase assay, FL-Peptide 7)
Format: biochemical
Conditions: compound concentration showing 150% relative to the control (100%); human AMPK α2β2γ1 phosphorylated with CaMKK2
Method: The full length cDNAs of human AMPK β2 (NM_005399.3) and human AMPK α2 (NM_006252.3) were inserted into the MCS1 and MCS2 of the pETDuet-1 vector to prepare a human AMPK β2 and human AMPK α2 (6×His tag at the 5′ terminus) expressing plasmid. The plasmid was cotransfected with an expression plasmid, in which the full length cDNA of human AMPK γ1 (NM_002733.3) had been inserted into pET28b(+), into BL21 CodonPlus (DE3)-RIL to obtain an expression strain. The expression strain was cultured in TB medium, followed by induction with 0.5 mM IPTG, and cultured at 25° C. for 3 hours and then harvested. After ultrasonication, supernatant was collected and applied to Histrap FF column (GE) and RESOUECE Q column (GE) to prepare 12.5 mg of purified sample containing three types of subunit from 1.8 L of broth.
An expression vector, in which the full length cDNA of human CAMKK β (NM_172226.1) had been inserted into pGEX-6P-3, was transfected into BL21 Star (DE3). The expression strain was cultured in TB medium, followed by induction with 0.5 mM IPTG, and cultured at 25° C. for 3 hours and then harvested. After ultrasonication, supernatant was collected and applied to GSTrap FF column (GE) to prepare 14 mg of GST-fused CAMKK β from 720 ml of broth.
Thus, phosphorylation treatment was carried out as pretreatment.
Human AMPK α2β2γ1 in an amount to give a conversion rate of approximately 10% by reaction for 2 hours, and CaMKK2 in an amount capable of sufficiently imparting activity to AMPK for one hour were mixed in a buffer solution consisting of a 50 mM HEPES-NaOH buffer solution (pH 7.0), 100 mM NaCl, 5 mM magnesium chloride, 0.1% bovine serum albumin, 0.2 mM sodium orthovanadate(V), 1 mM ethylene glycol-bis(2-aminoethyl ether)-N,N,N′,N′-tetraacetic acid (EGTA), 5 mM disodium β-glycerophosphate, 1 mM dithiothreitol and 0.2 mM ATP, and the resulting liquid was left to stand at 25° C. for 1 to 1.5 hours to sufficiently phosphorylate AMPK.
After that, to the enzyme liquid, which had been subjected to phosphorylation treatment, a compound dissolved in DMSO was added so as to have a 1% DMSO concentration. The resulting liquid was left to stand for 10 minutes.
To the liquid, a substrate solution consisting of a 50 mM HEPES-NaOH buffer solution (pH 7.0), 100 mM NaCl, 10 mM magnesium chloride, 0.1% bovine serum albumin, 0.2 mM sodium orthovanadate(V), 1 mM ethylene glycol-bis(2-aminoethyl ether)-N,N,N′,N′-tetraacetic acid (EGTA), 5 mM disodium β-glycerophosphate, 2 mM dithiothreitol, 0.4 mM ATP and 3 μM FL-Peptide 7 (manufactured by Caliper Life Sciences, Inc.) was added in equal amount (10 μl in total). The resulting liquid was allowed to react at 25° C. for 2 hours, then 10 μl of 20 mM EDTA was added thereto to stop the reaction.
To detect phosphorylated fluorescent substrates, the reaction mixture was applied to a measuring device, LabChip EZ Reader II manufactured by Caliper Life Science, Inc., for detecting fluorescence by using differences in mobility due to differences in charge. The setting conditions for the device were pressure, −1.5 PSI; upstream voltage, −2250 V; downstream voltage, −400 V; post sample buffer sip time, 40 seconds; final delay, 120 seconds; and peak order, Product First.
A conversion rate was calculated from the peak heights of the obtained substrate and product. The conversion rate when not containing a compound was used as a control, and a concentration dependent curve was made by plotting the rate of increase in activity to the control at each concentration of a compound.

T1 sequence (P54646 whole entry): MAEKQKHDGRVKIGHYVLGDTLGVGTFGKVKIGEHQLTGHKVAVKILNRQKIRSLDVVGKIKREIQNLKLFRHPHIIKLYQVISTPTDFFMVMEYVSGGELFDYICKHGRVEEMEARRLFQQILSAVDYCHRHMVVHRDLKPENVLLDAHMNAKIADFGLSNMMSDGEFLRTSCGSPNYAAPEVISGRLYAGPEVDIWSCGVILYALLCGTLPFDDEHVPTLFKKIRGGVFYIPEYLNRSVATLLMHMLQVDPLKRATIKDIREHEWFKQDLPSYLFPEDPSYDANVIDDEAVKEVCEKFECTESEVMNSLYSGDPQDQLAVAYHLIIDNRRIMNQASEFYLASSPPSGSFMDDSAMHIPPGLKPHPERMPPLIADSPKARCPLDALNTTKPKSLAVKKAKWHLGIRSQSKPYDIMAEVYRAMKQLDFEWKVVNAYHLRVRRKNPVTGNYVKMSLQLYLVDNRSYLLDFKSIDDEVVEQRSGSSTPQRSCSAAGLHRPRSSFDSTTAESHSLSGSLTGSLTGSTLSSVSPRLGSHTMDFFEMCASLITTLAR
T1 sequence (O43741 whole entry): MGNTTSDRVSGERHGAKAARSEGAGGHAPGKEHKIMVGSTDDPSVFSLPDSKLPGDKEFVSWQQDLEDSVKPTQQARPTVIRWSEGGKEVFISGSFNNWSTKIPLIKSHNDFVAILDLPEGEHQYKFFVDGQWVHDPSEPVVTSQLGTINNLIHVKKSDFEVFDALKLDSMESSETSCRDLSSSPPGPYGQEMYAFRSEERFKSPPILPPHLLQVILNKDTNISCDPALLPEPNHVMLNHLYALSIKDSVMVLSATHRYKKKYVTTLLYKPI
T1 sequence (P54619 whole entry partner): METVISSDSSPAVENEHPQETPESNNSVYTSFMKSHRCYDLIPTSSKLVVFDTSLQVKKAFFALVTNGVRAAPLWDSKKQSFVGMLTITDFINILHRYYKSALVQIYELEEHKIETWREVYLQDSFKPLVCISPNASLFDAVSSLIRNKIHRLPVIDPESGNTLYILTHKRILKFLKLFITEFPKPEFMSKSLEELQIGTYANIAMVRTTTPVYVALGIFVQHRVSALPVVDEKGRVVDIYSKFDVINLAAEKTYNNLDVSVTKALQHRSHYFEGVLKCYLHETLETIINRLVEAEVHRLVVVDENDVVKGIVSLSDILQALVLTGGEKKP

Row | Structure (SMILES) | EC150
1 | CC(C)(C)P(=O)(c1ccc(-c2ccc(-c3nc4cc(O[C@@H]5CO[C@H]6[C@@H]5OC[C@H]6O)[nH]c4cc3F)cc2)cc1)C(C)(C)C [Compound I-2-67] | 22 nM
2 | OCCCc1ccc(-c2ccc(-c3nc4cc(O[C@@H]5CO[C@H]6[C@@H]5OC[C@H]6O)[nH]c4cc3F)cc2)cc1 [Compound I-2-30] | 4.3 nM
3 | O[C@@H]1CO[C@H]2[C@@H]1OC[C@H]2Oc1cc2nc(-c3ccc(-c4ccc(Oc5ccncc5)cc4)cc3)c(F)cc2[nH]1 [Compound I-2-45] | 5 nM
4 | CS(C)(=O)=Nc1ccc(-c2ccc(-c3nc4cc(O[C@@H]5CO[C@H](CO)[C@H]5F)[nH]c4cc3F)cc2)cc1 [Compound I-2-42] | 2.6 nM
5 | O[C@@H]1CO[C@H]2[C@@H]1OC[C@H]2Oc1cc2nc(-c3ccc(-c4ccc(C5=NCCO5)cc4)cc3)c(F)cc2[nH]1 [Compound I-1-15] | 0.58 nM
6 | COCCOC1CCN(c2ccc(-c3nc4cc(O[C@@H]5CO[C@H]6[C@@H]5OC[C@H]6O)[nH]c4cc3F)cc2)C1 (stereo partly shown) [Compound I-1-62] | 21 nM
7 | CS(C)(=O)=Nc1ccc(-c2ccc(-c3nc4cc(O[C@@H]5CO[C@H]6[C@@H]5OC[C@H]6O)[nH]c4cc3Cl)cc2)cc1 [Compound I-1-30] | 1.7 nM
8 | O[C@@H]1CO[C@H]2[C@@H]1OC[C@H]2Oc1cc2nc(-c3ccc(-c4ccc(OCCC(F)F)cc4)cc3)c(F)cc2[nH]1 [Compound I-2-63] | 21 nM
9 | COCCN(C(C)=O)c1ccc(-c2ccc(-c3nc4cc(O[C@@H]5CO[C@H]6[C@@H]5OC[C@H]6O)[nH]c4cc3F)cc2)cc1 [Compound I-2-37] | 4.5 nM
10 | OCCSc1ccc(-c2ccc(-c3nc4cc(O[C@@H]5CO[C@H]6[C@@H]5OC[C@H]6O)[nH]c4cc3F)cc2)cc1 [Compound I-2-16] | 1.8 nM
11 | OC[C@@H]1C[C@H](Oc2cc3nc(-c4ccc(C5(CO)CC5)cc4)c(F)cc3[nH]2)CO1 [Compound I-2-80] | 2 nM
12 | CS(C)(=O)=Nc1ccc(-c2ccc(-c3nc4cc(O[C@@H]5CO[C@H](CO)[C@@H]5O)[nH]c4cc3F)cc2)cc1 [Compound I-2-19] | 67 nM
13 | CNS(C)(=O)=Nc1ccc(-c2ccc(-c3nc4cc(O[C@@H]5CO[C@H]6[C@@H]5OC[C@H]6O)[nH]c4cc3F)cc2)cc1 (stereo partly shown) [Compound I-2-04] | 0.67 nM
14 | O[C@@H]1CO[C@H]2[C@@H]1OC[C@H]2Oc1cc2nc(-c3ccc(-c4ccc(OCC5CCCO5)cc4)cc3)c(F)cc2[nH]1 (stereo partly shown) [Compound I-2-33] | 20 nM
15 | CNC(=O)Nc1ccc(-c2ccc(-c3nc4cc(O[C@@H]5CO[C@H]6[C@@H]5OC[C@H]6O)[nH]c4cc3F)cc2)cc1 [Compound I-1-08] | 4.7 nM
16 | CONC(=O)c1ccc(-c2ccc(-c3nc4cc(O[C@@H]5CO[C@H](CO)C5)[nH]c4cc3F)cc2)cc1 [Compound I-2-86] | 0.53 nM
17 | CN(C)S(=O)(=O)c1ccc(-c2ccc(-c3nc4cc(O[C@@H]5CO[C@H]6[C@@H]5OC[C@H]6O)[nH]c4cc3F)cc2)nc1 [Compound I-1-33] | 6.5 nM

Same assay, conditions: maximum rate of increase in activity within the measurement range, control = 100%; read-out: Emax

Row | Structure (SMILES) | Emax
18 | CC(C)(C)P(=O)(c1ccc(-c2ccc(-c3nc4cc(O[C@@H]5CO[C@H]6[C@@H]5OC[C@H]6O)[nH]c4cc3F)cc2)cc1)C(C)(C)C [Compound I-2-67] | 555%
19 | OCCCc1ccc(-c2ccc(-c3nc4cc(O[C@@H]5CO[C@H]6[C@@H]5OC[C@H]6O)[nH]c4cc3F)cc2)cc1 [Compound I-2-30] | 605%
20 | O[C@@H]1CO[C@H]2[C@@H]1OC[C@H]2Oc1cc2nc(-c3ccc(-c4ccc(Oc5ccncc5)cc4)cc3)c(F)cc2[nH]1 [Compound I-2-45] | 613%
21 | CS(C)(=O)=Nc1ccc(-c2ccc(-c3nc4cc(O[C@@H]5CO[C@H](CO)[C@H]5F)[nH]c4cc3F)cc2)cc1 [Compound I-2-42] | 647%
22 | O[C@@H]1CO[C@H]2[C@@H]1OC[C@H]2Oc1cc2nc(-c3ccc(-c4ccc(C5=NCCO5)cc4)cc3)c(F)cc2[nH]1 [Compound I-1-15] | 525%
23 | COCCOC1CCN(c2ccc(-c3nc4cc(O[C@@H]5CO[C@H]6[C@@H]5OC[C@H]6O)[nH]c4cc3F)cc2)C1 (stereo partly shown) [Compound I-1-62] | 392%
24 | CS(C)(=O)=Nc1ccc(-c2ccc(-c3nc4cc(O[C@@H]5CO[C@H]6[C@@H]5OC[C@H]6O)[nH]c4cc3Cl)cc2)cc1 [Compound I-1-30] | 500%
25 | O[C@@H]1CO[C@H]2[C@@H]1OC[C@H]2Oc1cc2nc(-c3ccc(-c4ccc(OCCC(F)F)cc4)cc3)c(F)cc2[nH]1 [Compound I-2-63] | 520%
26 | COCCN(C(C)=O)c1ccc(-c2ccc(-c3nc4cc(O[C@@H]5CO[C@H]6[C@@H]5OC[C@H]6O)[nH]c4cc3F)cc2)cc1 [Compound I-2-37] | 415%
27 | OCCSc1ccc(-c2ccc(-c3nc4cc(O[C@@H]5CO[C@H]6[C@@H]5OC[C@H]6O)[nH]c4cc3F)cc2)cc1 [Compound I-2-16] | 623%
28 | OC[C@@H]1C[C@H](Oc2cc3nc(-c4ccc(C5(CO)CC5)cc4)c(F)cc3[nH]2)CO1 [Compound I-2-80] | 558%
29 | CS(C)(=O)=Nc1ccc(-c2ccc(-c3nc4cc(O[C@@H]5CO[C@H](CO)[C@@H]5O)[nH]c4cc3F)cc2)cc1 [Compound I-2-19] | 192%
30 | CNS(C)(=O)=Nc1ccc(-c2ccc(-c3nc4cc(O[C@@H]5CO[C@H]6[C@@H]5OC[C@H]6O)[nH]c4cc3F)cc2)cc1 (stereo partly shown) [Compound I-2-04] | 638%
31 | O[C@@H]1CO[C@H]2[C@@H]1OC[C@H]2Oc1cc2nc(-c3ccc(-c4ccc(OCC5CCCO5)cc4)cc3)c(F)cc2[nH]1 (stereo partly shown) [Compound I-2-33] | 362%
32 | CNC(=O)Nc1ccc(-c2ccc(-c3nc4cc(O[C@@H]5CO[C@H]6[C@@H]5OC[C@H]6O)[nH]c4cc3F)cc2)cc1 [Compound I-1-08] | 444%
33 | CONC(=O)c1ccc(-c2ccc(-c3nc4cc(O[C@@H]5CO[C@H](CO)C5)[nH]c4cc3F)cc2)cc1 [Compound I-2-86] | 592%
34 | CN(C)S(=O)(=O)c1ccc(-c2ccc(-c3nc4cc(O[C@@H]5CO[C@H]6[C@@H]5OC[C@H]6O)[nH]c4cc3F)cc2)nc1 [Compound I-1-33] | 464%
